Measurements taken from patent publication US20200254065A1, “LONG-ACTING GLP-2 ANALOGS” (OPKO Biologics Ltd., priority 2019, published 2020).
Like-named read-outs stand apart in the source and are kept apart here. Numbered stars: 1 amine (or outer) side, 2 acyl side, 3 side chain; on linkers, the order of the positions; unused ones are H or OH. Square brackets hold non-standard residues; d marks the D form. Ends that are not written are not given here. Peptide text beside a SMILES is read from it. * marks the point of attachment. X2 = O=C(OCC1c2cc(N[*:1])ccc2-c2ccc(S(=O)(=O)O)cc21)[*:2]; X1 = N[C@@H](CSC1CC(=O)N(CCC(=O)*)C1=O)C(=O)O; Nle = CCCC[C@H](N)C(=O)O

Experiments:
[1] = PK after single IV injection in rats; type: in vivo
Text: Blood samples were collected at 0.5, 2, 4, 8, 12, 24, 36, 48, 72, 96- and 120-hours post-dose administration.

[2] = 2-compartmental pharmacokinetic modelling (MONOLIX 2018R2); type: in vivo, rat; details: for half-life: rat, in vivo
Protocol: An in-depth PK modeling was performed to address the unexpected differences in half life, distribution, and pharmacological effect between V4, Cys-FMS-V4, and Apraglutide in the rat model. The analysis was performed with MONOLIX 2018R2 suite using a 2-compartmental pharmacokinetic model. The data used in this analysis was comprised from 3 independent experiments (data is presented as their average). The concentration versus time data of V4 that was formed from the Cys-FMS-V4 conjugate (the hydrolyzed peptide) was described appropriately using the values of the pharmacokinetic parameters of V4 peptide. Thus, the disposition of the hydrolyzed V4 was identical to that of the V4 peptide following the IV and SC administration.
The pharmacokinetics of Apraglutide in our studies was determined after SC administration. […] Based on this assumption, the values of volumes of distribution and clearance (Vpept, Vss, Vbeta, and CL) were calculated for Apraglutide (Table 13). The values of the other parameters of Apraglutide in Table 14 (the rate constants and the half-lives) are not dependent on this assumption.

[3] = PK after single SC injection in rats (LC-MS/MS); details: rat, in vivo, 2 mg/kg
Protocol: To support the pharmacodynamic effects of V4 and Cys-FMS-V4 as detailed in Example 9, a pharmacokinetic analysis was also conducted. In this study (Study reference 15204), all animals were injected SC on Day 1 with 2 mg/kg peptide content of V4, Cys-FMS-V4 and Apraglutide. Blood samples were collected at 2, 8, 12, 24, 36, 48, 72, 96, 120 hours, and Days 7, 8, 9, 10, 11, 12, 13 and 14 post-dose administration and subsequently taken to LC-MS/MS analysis to determine plasma levels of each compound. For Cys-FMS-V4, a 2-analyte method was applied to determine the plasma concentrations of both the full conjugate and the V4 that was hydrolyzed from it (V4 hydrolyzed). Plasma concentrations (μM), as measured by using the LC-MS/MS method, of V4 peptide, Cys-FMS-V4, hydrolyzed V4, and Apraglutide are presented in FIG. 17.

small intestine = test: Intestine weight model in rats; type: in vivo, SD rats
Protocol: In the pharmacology study, the conjugates were injected subcutaneously twice, on days 1 and 3 at 1 mg/kg (peptide dose) and intestine weight was performed on day 6. In addition to the PEGylated conjugates, GLP-2-Gly2 was injected at the same dose and regimen for comparison. The average of the intestine weight of each group was compared to that of the vehicle group.
In a different study, several of the PEGylated teduglutide were injected as a single dose at 1 mg/kg and the intestine weight performed on day 6.
Pharmacology and pharmacokinetic studies were performed with the most promising GLP-2 variants to evaluate their efficacy and longevity, respectively. The intestine weight model in rats was conducted to evaluate efficacy, by measuring percent increase of the intestine weight of treated animals over the vehicle group. In this study, the peptides were injected twice, on days 1 and 3 at 1 mg/kg and the intestine weight was conducted on day 6.
PEG20-FMS-V6, PEG20-Fmoc-V6 and PEG40-FMS-V6 were injected once at 1 mg/kg dose on day 1, while group D was also injected twice on days 1 & 3 at 1 mg/kg. The intestine weight was performed on day 6.
Three different reversible PEGylated GLP-2 variants using mutated peptide #4 were injected at 2 mg/kg (peptide dose), once every 6 days for 12 days. On the 12th day the intestine was weighted and compared to the control group. PEG30-FMS-V4 was injected at 0.5 mg/kg as well to evaluate the efficacy dose range.
In addition to PEG30-FMS-V4 and PEG30-Fmoc-V4 that have been pharmacology evaluated by small intestinal weight evaluation (As shown in Example 5), four other reversible PEGylated variant 4 (“V4”) conjugates and two reversible linker-V4 conjugates were synthesized. All the above were injected to 6 normal SD rats/group once at 2 mg/kg (peptide dose), while on the 6th day, animals were scarified, and the small intestine was weighted followed by histopathology evaluation. […] Therefore, slices from three areas of the intestine (duodenum, jejunum and ilium) were stained with hematoxylin and eosin and at least 7 Crypts+Villi length/slice were measured. The averaged Villi+Crypt length of each treatment group (n=6) was compared to the vehicle group (negative control) and calculated as percentage increase over vehicle.
Additional studies were conducted to evaluate the efficacy of the V4 peptide and the reversible MAL-FMS-V4. The long acting effect of V4 and the conjugates were evaluated at Day 6 and Day 10 following treatment (Study reference 15203). All test groups (n=9) were injected SC with 2 mg/kg peptide content at Day 1. At Days 6 and 10, animals were sacrificed and the small intestine underwent histopathology evaluation (6 animals for Day 6, 3 animals for Day 10). FIGS. 12 and 13 show the pharmacology effect of different V4 conjugates and Apraglutide and Glepaglutide as measured by the percent increase of small intestine weight and crypts plus villi length over vehicle, respectively.
To further evaluate the pharmacology efficacy of V4 and Cys-FMS-V4, an experiment was performed to test their acute and prolonged effect on the small intestine (Study reference 15205). In addition, V4 and Cys-FMS-V4 were administrated as a single SC injection on Day 1 at 3 different doses (0.5, 2.0 or 8.0 mg/kg peptide content, 6 rats per group) to assess the dose dependence effect. The pharmacological effect on small intestine weight and villi plus crypts length was measured at Days 3, 7 and 14, and the results are presented in FIGS. 15 and 16. […] It should be noted that this acute response was higher for V4 compared to Cys-FMS-V4 at all 3 dose levels.

[4] = rats, single IV 2 mg/kg peptide content
[5] = SD rats, SC on days 1 and 3 at 1 mg/kg peptide dose (2 injections), intestine weight on day 6
[6] = single dose 1 mg/kg peptide, intestine weight on day 6, average of two studies
[7] = 0.5 mg/kg peptide dose once every 6 days for 12 days, weighed on 12th day
[8] = 2 mg/kg peptide dose once every 6 days for 12 days, weighed on 12th day

## CCCC[C@H](NC(=O)[C@H](CCC(=O)O)NC(=O)[C@H](CC(=O)O)NC(=O)[C@H](CO)NC(=O)[C@H](Cc1ccccc1)NC(=O)[C@H](CO)NC(=O)CNC(=O)[C@H](CCC(=O)O)NC(=O)CNC(=O)[C@H](Cc1c[nH]cn1)NC(=O)OCC1c2cc(NC(=O)CCN3C(=O)CC(SC[C@H](N)C(=O)O)C3=O)ccc2-c2ccc(S(=O)(=O)O)cc21)C(=O)N[C@@H](CC(N)=O)C(=O)N[C@H](C(=O)N[C@H](C(=O)N[C@@H](CC(C)C)C(=O)N[C@@H](CC(=O)O)C(=O)N[C@@H](CC(C)C)C(=O)N[C@@H](CC(C)C)C(=O)N[C@@H](C)C(=O)N[C@@H](C)C(=O)N[C@@H](CCCNC(=N)N)C(=O)N[C@@H](CC(=O)O)C(=O)N[C@@H](Cc1ccccc1)C(=O)N[C@H](C(=O)N[C@@H](CC(N)=O)C(=O)N[C@@H](Cc1c[nH]c2ccccc12)C(=O)N[C@@H](CC(C)C)C(=O)N[C@H](C(=O)N[C@@H](CCC(N)=O)C(=O)N[C@H](C(=O)N[C@@H](CCCCN)C(=O)N[C@H](C(=O)N[C@H](C(=O)N[C@@H](CC(=O)O)C(N)=O)[C@@H](C)O)[C@@H](C)CC)[C@@H](C)O)[C@@H](C)CC)[C@@H](C)CC)[C@@H](C)CC)[C@@H](C)O (stereo partly drawn) [Cys-FMS-V4] (X1-[X2]HGEGSFSDE[Nle]NTILDLLAARDFINWLIQTKITD-NH2)
[1]; rats, single IV 2 mg/kg
  Fraction of V4 released from the conjugate (AUC ratio): ~35%
[1]; [4]
  Cl/F_obs: 0.064 (μmol/kg)/(μmol/L)/h
  Vz/F_obs: 0.260 (μmol/kg)/(μmol/L)
[1]; rats, single IV 2 mg/kg, 24 hours post injection
  Detectability in blood after IV administration: could not be detected 24 hours post injection
[2]; 53.8% SC bioavailability, 67.9% hydrolyzed to V4
  Fraction of Cys-FMS-V4 converted to V4 following SC administration: approximately 36.5%
[2]; Cys-FMS-V4 conjugate
  Vconj: 0.119 L/kg
  ka—conj: 0.0717 h⁻¹
  kconje: 0.207 h⁻¹
  kh: 0.438 h⁻¹
[2]; Cys-FMS-V4 conjugate, SC bioavailability fraction
  Fconj: 0.538
[2]; absorbed Cys-FMS-V4 hydrolyzed to V4
  % to V4: 67.9%
[2]; Cys-FMS-V4 conjugate, Table 15, read-out: t1/2 absorption (converted)
  half-life: 9.67 h
[2]; Cys-FMS-V4 conjugate, read-out: t1/2 hydrolysis (converted)
  half-life: 1.58 h
[2]; Cys-FMS-V4 conjugate, read-out: t1/2 other pathways (converted)
  half-life: 3.35 h

## CCCC[C@H](NC(=O)[C@H](CCC(=O)O)NC(=O)[C@H](CC(=O)O)NC(=O)[C@H](CO)NC(=O)[C@H](Cc1ccccc1)NC(=O)[C@H](CO)NC(=O)CNC(=O)[C@H](CCC(=O)O)NC(=O)CNC(=O)[C@@H](N)Cc1c[nH]cn1)C(=O)N[C@@H](CC(N)=O)C(=O)N[C@H](C(=O)N[C@H](C(=O)N[C@@H](CC(C)C)C(=O)N[C@@H](CC(=O)O)C(=O)N[C@@H](CC(C)C)C(=O)N[C@@H](CC(C)C)C(=O)N[C@@H](C)C(=O)N[C@@H](C)C(=O)N[C@@H](CCCNC(=N)N)C(=O)N[C@@H](CC(=O)O)C(=O)N[C@@H](Cc1ccccc1)C(=O)N[C@H](C(=O)N[C@@H](CC(N)=O)C(=O)N[C@@H](Cc1c[nH]c2ccccc12)C(=O)N[C@@H](CC(C)C)C(=O)N[C@H](C(=O)N[C@@H](CCC(N)=O)C(=O)N[C@H](C(=O)N[C@@H](CCCCN)C(=O)N[C@H](C(=O)N[C@H](C(=O)N[C@@H](CC(=O)O)C(N)=O)[C@@H](C)O)[C@@H](C)CC)[C@@H](C)O)[C@@H](C)CC)[C@@H](C)CC)[C@@H](C)CC)[C@@H](C)O [V4 (hydrolyzed)] (H-HGEGSFSDE[Nle]NTILDLLAARDFINWLIQTKITD-NH2)
[1]; rat, in vivo, iv, 2 mg/kg
  Cl/F_obs: 0.042 (μmol/kg)/(μmol/L)/h
  Vz/F_obs: 0.487 (μmol/kg)/(μmol/L)
[3]
  Cl/F obs: 0.034 (μmol/kg)/(μmol/L)/h
  Vz/F_obs: 2.19 (μmol/kg)/(μmol/L)

## PEG30-FMS-(GLP-2-Gly2): teduglutide reversibly PEGylated, PEG30 via FMS linker; heterogenous mixture of N terminus and Lys30 attachment
Small intestine; [5]
  Average Intestine weight (gr): 9.5 gr
  Increase of intestine weight over vehicle (%): 73%
Small intestine; [6]
  Increase of intestine weight over vehicle (%): 34%

## PEG30-FMS-V4 (HGEGSFSDE[Nle]NTILDLLAARDFINWLIQTKITD-NH2; also: PEG30-FMS conjugate, place not given here)
Small intestine; [7]
  Average Intestine weight (gr): 5.2 gr
  Increase of intestine weight over vehicle (%): −14%
Small intestine; [8]
  Average Intestine weight (gr): 6.9 gr
  Increase of intestine weight over vehicle (%): 15%

## PEG30-NRF-V4 (HGEGSFSDE[Nle]NTILDLLAARDFINWLIQTKITD-NH2; also: PEG30-NRF conjugate, place not given here)
Small intestine; normal SD rats, injected once at 2 mg/kg peptide dose, 6th day
  Avg. small intestine weight (gr): 4.0 gr
Small intestine; normal SD rats, injected once at 2 mg/kg peptide dose, 6th day, MAL-FMS-V4 compared to Vehicle 2
  Small intestine weight increase over vehicle (%): −8.0%

## PEG40-EMCS-(GLP-2-Gly2): non-reversible PEGylation (PEG40, EMCS) conjugated to GLP-2-Gly2
Small intestine; [5]
  Average Intestine weight (gr): 6.6 gr
  Increase of intestine weight over vehicle (%): 19%

## PEG40-FMS-(GLP-2-Gly2): teduglutide reversibly PEGylated, PEG40 via FMS linker; heterogenous mixture of N terminus and Lys30 attachment
Small intestine; [5]
  Average Intestine weight (gr): 9.3 gr
  Increase of intestine weight over vehicle (%): 70%
Small intestine; [6]
  Increase of intestine weight over vehicle (%): 27%

## PEG40-Fmoc-(GLP-2-Gly2): teduglutide reversibly PEGylated, PEG40 via Fmoc linker; heterogenous mixture of N terminus and Lys30 attachment
Small intestine; [8]
  Average Intestine weight (gr): 6.9 gr
  Increase of intestine weight over vehicle (%): 14%
Small intestine; [5]
  Average Intestine weight (gr): 9.4 gr
  Increase of intestine weight over vehicle (%): 72%
Small intestine; [6]
  Increase of intestine weight over vehicle (%): 31%

## PEG(Branch20)-FMS-(GLP-2-Gly2): teduglutide reversibly PEGylated with branched PEG via FMS linker; tables say Branch20, b275 Branched30
Small intestine; [5]
  Average Intestine weight (gr): 7.8 gr
  Increase of intestine weight over vehicle (%): 42%

## PEGBranched40-FMS-(GLP-2-Gly2): teduglutide reversibly PEGylated with branched PEG40 via FMS linker
Small intestine; [5]
  Average Intestine weight (gr): 8.1 gr
  Increase of intestine weight over vehicle (%): 48%
Small intestine; [6]
  Increase of intestine weight over vehicle (%): 22%
